Experimental data reported in patent publication US5629309A, “2-substituted indane-2-mercaptoacetylamide disulfide derivatives useful as inhibitors of enkephalinase and ACE” (Merrell Pharmaceuticals Inc., priority 1995, dated 1997).

Target: T1, ACE, rat kidney preparations (Rattus norvegicus, UniProt P47820)
T1 construct: either compound- or vehicle-dosed rat kidney preparations; from tissue; host or cells: kidney of male Sprague-Dawley rats
T1 sequence (P47820 36-1313): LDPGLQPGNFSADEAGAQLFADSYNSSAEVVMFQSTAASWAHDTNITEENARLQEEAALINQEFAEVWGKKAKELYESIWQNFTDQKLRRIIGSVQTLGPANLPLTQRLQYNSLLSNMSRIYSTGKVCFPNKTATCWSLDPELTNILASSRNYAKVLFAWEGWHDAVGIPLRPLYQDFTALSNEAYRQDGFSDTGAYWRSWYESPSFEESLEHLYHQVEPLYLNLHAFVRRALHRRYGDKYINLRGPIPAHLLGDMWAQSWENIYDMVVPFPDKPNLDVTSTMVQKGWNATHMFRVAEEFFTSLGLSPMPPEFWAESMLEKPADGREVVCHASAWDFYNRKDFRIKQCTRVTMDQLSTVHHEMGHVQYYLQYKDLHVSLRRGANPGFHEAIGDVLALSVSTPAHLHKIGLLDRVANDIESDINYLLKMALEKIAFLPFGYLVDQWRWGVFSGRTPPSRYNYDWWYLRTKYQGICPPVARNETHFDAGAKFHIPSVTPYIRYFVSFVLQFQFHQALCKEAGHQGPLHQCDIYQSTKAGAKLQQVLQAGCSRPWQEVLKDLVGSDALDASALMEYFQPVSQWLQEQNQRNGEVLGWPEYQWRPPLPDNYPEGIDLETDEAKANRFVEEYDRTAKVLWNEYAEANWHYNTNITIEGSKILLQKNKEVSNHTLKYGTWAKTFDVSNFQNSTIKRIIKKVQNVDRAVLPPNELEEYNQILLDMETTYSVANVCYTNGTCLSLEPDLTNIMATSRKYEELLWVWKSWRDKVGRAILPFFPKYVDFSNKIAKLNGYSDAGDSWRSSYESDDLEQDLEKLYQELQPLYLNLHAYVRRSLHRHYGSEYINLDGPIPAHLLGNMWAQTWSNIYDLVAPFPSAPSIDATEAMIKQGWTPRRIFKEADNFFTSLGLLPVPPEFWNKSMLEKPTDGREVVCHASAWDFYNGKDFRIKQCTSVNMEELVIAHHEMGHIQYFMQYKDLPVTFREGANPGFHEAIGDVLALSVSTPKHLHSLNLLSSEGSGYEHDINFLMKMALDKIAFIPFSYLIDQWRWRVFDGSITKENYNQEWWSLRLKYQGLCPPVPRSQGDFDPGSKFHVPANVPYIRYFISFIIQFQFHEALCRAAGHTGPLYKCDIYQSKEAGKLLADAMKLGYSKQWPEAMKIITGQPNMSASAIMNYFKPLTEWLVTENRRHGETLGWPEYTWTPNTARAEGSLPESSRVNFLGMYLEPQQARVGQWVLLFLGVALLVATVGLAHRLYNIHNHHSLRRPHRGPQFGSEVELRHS
Experiment: Radiometric ACE assay with tritiated hippuryl-glycyl-glycine, rat kidney preparations
Assay type: biochemical
Conditions: 1 μM enalaprilat; compound- or vehicle-dosed rat kidney preparations

## C[C@H](N[C@@H](CCc1ccccc1)C(=O)O)C(=O)N1CCC[C@H]1C(=O)O [enalaprilat]
  inhibition of radioactive product formation: Complete inhibition
